Measurements published in patent US10668094B2, “Selective inhibitors of Alpha2-containing isoforms of Na,K-ATPase and use thereof for reduction of intraocular pressure” (Yeda Research and Development Co. Ltd., priority 2015, dated 2020).
Like-named read-outs stand apart in the source and are kept apart here.

How the values were obtained:
[1] = biological target: human Na,K-ATPase α1β1FXYD1 (Homo sapiens (Human), UniProt P05023); assay type: biochemical
[2] = biological target: human Na,K-ATPase α2β1FXYD1 (Homo sapiens, UniProt P50993); assay type: biochemical
[3] = system: human Na,K-ATPase α2β1FXYD1; assay type: biochemical
[4] = biological target: human Na,K-ATPase α2β2FXYD1 (Homo sapiens (Human), UniProt P50993); assay type: biochemical
[5] = biological target: human Na,K-ATPase α2β3FXYD1 (Homo sapiens (Human), UniProt P50993+P54709); test: biochemical; assay type: biochemical
basal IOP in rabbits = test: Basal IOP in rabbits, topical administration; assay type: in vivo, rabbit

| Compound | Ki ([1]; read-out: Ki in nM ± SEM α1β1) [nM] | Ki ([2]; read-out: Ki in nM ± SEM α2β1) [nM] | Selectivity Ki ratio α1β1/α2β1 [3] | Selectivity Ki ratio α1β1/α2β2 [4] | Ki ([4]; read-out: Ki in nM ± SEM α2β2) [nM] | Selectivity Ki ratio α1β1/α2β3 [5] | Ki ([5]; read-out: Ki in nM ± SEM α2β3) [nM] | also measured |
| --- | --- | --- | --- | --- | --- | --- | --- | --- |
| CCN1CCC(O[C@@H]2[C@H](C)O[C@@H](O[C@@H]3[C@H](C)O[C@@H](O[C@H]4CC[C@@]5(C)C(CCC6C5C[C@H](O)[C@]5(C)[C@@H](C7=CC(=O)OC7)CC[C@]65O)C4)C[C@@H]3O)C[C@@H]2O)OC(C)C1 (stereo partly shown) [DEt] | 138 ± 12.6 | 23.2 ± 0.9 | 5.9 | 8.3 | 16.4 ± 1.6 | 9.5 | 14.4 ± 1.27 |  |
| CC1CN(CCC2CC2)CCC(O[C@@H]2[C@H](C)O[C@@H](O[C@@H]3[C@H](C)O[C@@H](O[C@H]4CC[C@@]5(C)C(CCC6C5C[C@H](O)[C@]5(C)[C@@H](C7=CC(=O)OC7)CC[C@]65O)C4)C[C@@H]3O)C[C@@H]2O)O1 (stereo partly shown) [DEcP] | 86.1 ± 7 | 14.3 ± 2 | 6.02 | 7.1 | 12.1 ± 1.9 | 12.02 | 7.2 ± 1 | selectivity for α2β3 over α1β1 (Ki α1β1:α2β3 ratio) [5]: 10-12 fold |
| CC(=O)O[C@H]1C[C@H](O[C@H]2[C@@H](OC(C)=O)C[C@H](O[C@H]3CC[C@@]4(C)[C@H](CC[C@@H]5[C@@H]4C[C@@H](OC(C)=O)[C@]4(C)[C@@H](C6=CC(=O)OC6)CC[C@]54O)C3)O[C@@H]2C)O[C@H](C)[C@H]1OC1CCN(C2CCC2)CC(C)O1 (stereo partly drawn) [TrisAcDcB, (2R,3R,4S,6R)-6-(((3S,5R,8R,9S,10S,12R,13S,14S,17R)-12-acetoxy-14-hydroxy-10,13-dimethyl-17-(5-oxo-2,5-dihydrofuran-3-yl)hexadecahydro-1H-cyclopenta[a]phenanthren-3-yl)oxy)-3-(((2S,4S,5R,6R)-4-acetoxy-5-((4-cyclobutyl-2-methyl-1,4-oxazepam-7-yl)oxy)-6-methyltetrahydro-2H-pyran-2-yl)oxy)-2-methyltetrahydro-2H-pyran-4-yl acetate] |  |  |  |  |  |  |  | Ki of α1β1 higher than that of DcB [1]: ~100 fold; Ki ([1]; read-out: Ki of α1β1FXYD1): 13200 ± 6500 nM; Ki of α2β1 higher than that of DcB [2]: ~300 fold; Ki ([2]; read-out: Ki of α2β1FXYD1): 2500 ± 490 nM; time of return of IOP to the control level (basal IOP in rabbits; 0.05, 0.1, 0.2 mM): 12 h; time to minimum IOP (basal IOP in rabbits; 0.05, 0.1, 0.2 mM): 5 to 6 h; maximal effect on IOP compared with parent DcB (basal IOP in rabbits; 0.05-0.2 mM prodrug): essentially equal to that produced by the parent DcB; minimum IOP (basal IOP in rabbits; from 15-16 mmHg, 0.05, 0.1, 0.2 mM): 12 mmHg; onset of effect on basal IOP (basal IOP in rabbits; one 30 μl drop, 0.05, 0.1, 0.2 mM): no effect was observed at the first four hours |
| CC1CN(CCS(N)(=O)=O)CCC(O[C@@H]2C(C)O[C@@H](OC3C(C)OC(O[C@H]4CC[C@@]5(C)C(CCC6C5CC(O)[C@]5(C)[C@@H](C7=CC(=O)OC7)CC[C@]65O)C4)C[C@@H]3O)C[C@@H]2O)O1 (stereo in doubt) [DESA, 2-(7-(((2R,3S,4S,6S)-6-(((2R,3R,4S,6S)-6-(((3S,5R,8R,9S,10S,12R,13S,14S,17R)-12,14-dihydroxy-10,13-dimethyl-17-(5-oxo-2,5-dihydrofuran-3-yl)hexadecahydro-1H-cyclopenta[a]phenanthren-3-yl)oxy)-4-hydroxy-2-methyltetrahydro-2H-pyran-3-yl)oxy)-4-hydroxy-2-methyltetrahydro-2H-pyran-3-yl)oxy)-2-methyl-1,4-oxazepan-4-yl)ethanesulfonamide] | 301 ± 23 | 38.9 ± 2.2 | 7.7 | 9.5 | 31.5 ± 4.4 | 15 | 20.1 ± 0.9 |  |
| CC1CN(C[Si](C)(C)C)CCC(OC2C(O)CC(OC3C(O)CC(OC4CCC5(C)C(CCC6C5CC(O)C5(C)C(C7=CC(=O)OC7)CCC65O)C4)OC3C)OC2C)O1 (stereo not shown) [DTMS] | 72.6 ± 17.6 | 24.3 ± 4 | 3 | 5.1 | 14.3 ± 1.3 | 6.5 | 11.1 ± 1.6 |  |
| CCCN1CCC(O[C@@H]2[C@H](C)O[C@@H](O[C@@H]3[C@H](C)O[C@@H](O[C@H]4CC[C@@]5(C)C(CCC6C5C[C@H](O)[C@]5(C)[C@@H](C7=CC(=O)OC7)CC[C@]65O)C4)C[C@@H]3O)C[C@@H]2O)OC(C)C1 (stereo partly shown) [DP] | 87.7 ± 7.9 | 18.3 ± 1.68 | 4.8 | 8.3 | 10.5 ± 1.8 | 8.8 | 9.8 ± 1.1 |  |
| CC1CN(CS(C)(=O)=O)CCC(O[C@@H]2C(C)O[C@@H](OC3C(C)OC(O[C@H]4CC[C@@]5(C)C(CCC6C5CC(O)[C@]5(C)[C@@H](C7=CC(=O)OC7)CC[C@]65O)C4)C[C@@H]3O)C[C@@H]2O)O1 (stereo in doubt) [DMSM, 4-((3S,5R,8R,9S,10S,12R,13S,14S,17R)-12,14-dihydroxy-3-(((2S,4S,5R,6R)-4-hydroxy-5-(((2S,4S,5S,6R)-4-hydroxy-6-methyl-5-((2-methyl-4-((methylsulfonyl)methyl)-1,4-oxazepan-7-yl)oxy)tetrahydro-2H-pyran-2-yl)oxy)-6-methyltetrahydro-2H-pyran-2-yl)oxy)-10,13-dimethylhexadecahydro-1H-cyclopenta[a]phenanthren-17-yl)furan-2(5H)-one] | 944 ± 123 | 137 ± 9.8 | 6.9 | 7.7 | 123 ± 7.3 | 10.6 | 89 |  |
| CC1CN(C(C)C)CCC(O[C@@H]2[C@H](C)O[C@@H](O[C@@H]3[C@H](C)O[C@@H](O[C@H]4CC[C@@]5(C)C(CCC6C5C[C@H](O)[C@]5(C)[C@@H](C7=CC(=O)OC7)CC[C@]65O)C4)C[C@@H]3O)C[C@@H]2O)O1 (stereo partly shown) [DiP] | 149 | 28.9 ± 1.7 | 5.1 | 8.9 | 16.7 ± 1.9 | 14.4 | 10.3 ± 1.8 |  |
| CC1CN(C2CCCCC2)CCC(O[C@@H]2C(C)O[C@@H](OC3C(C)OC(O[C@H]4CC[C@@]5(C)C(CCC6C5CC(O)[C@]5(C)[C@@H](C7=CC(=O)OC7)CC[C@]65O)C4)C[C@@H]3O)C[C@@H]2O)O1 (stereo in doubt) [DcH, 4-((3S,5R,8R,9S,10S,12R,13S,14S,17R)-3-(((2S,4S,5R,6R)-5-(((2S,4S,5S,6R)-5((4-cyclohexyl-2-methyl-1,4-oxazepan-7-yl)oxy)-4-hydroxy-6-methyltetrahydro-2H-pyran-2-yl)oxy)-4-hydroxy-6-methyltetrahydro-2H-pyran-2-yl)oxy)-12,14-dihydroxy-10,13-dimethylhexadecahydro-1H-cyclopenta[a]phenanthren-17-yl)furan-2(5H)-one] | 70.4 ± 4.1 | 15.2 ± 3.7 | 4.6 | 4.6 | 15.3 ± 2.9 | 10.1 | 11.7 ± 4.5 | selectivity for α2β3 over α1β1 (Ki α1β1:α2β3 ratio) [5]: 10-12 fold |
| CC1CN(CCS(C)(=O)=O)CCC(O[C@@H]2C(C)O[C@@H](OC3C(C)OC(O[C@H]4CC[C@@]5(C)C(CCC6C5CC(O)[C@]5(C)[C@@H](C7=CC(=O)OC7)CC[C@]65O)C4)C[C@@H]3O)C[C@@H]2O)O1 (stereo in doubt) [DESM, 4-((3S,5R,8R,9S,10S,12R,13S,14S,17R)-12,14-dihydroxy-3-(((2S,4S,5R,6R)-4-hydroxy-5-(((2S,4S,5S,6R)-4-hydroxy-6-methyl-5-((2-methyl-4-(2-(methylsulfonyl)ethyl)-1,4-oxazepan-7-yl)oxy)tetrahydro-2H-pyran-2-yl)oxy)-6-methyltetrahydro-2H-pyran-2-yl)oxy)-10,13-dimethylhexadecahydro-1H-cyclopenta[a]phenanthren-17-yl)furan-2(5H)-one] | 464 ± 14 | 49.2 ± 1.9 | 9.4 | 14.6 | 31.7 ± 3.2 | 18.8 | 24.7 ± 2.1 |  |
| [O]=[V]([OH])([OH])[OH] [Vanadate, vanadate, reference compound] |  |  |  |  |  |  |  | Ki ([1]; read-out: apparent vanadate affinity α1β1): 480 nM; Ki ([2]; Example 2, vanadate titration, read-out: apparent vanadate affinity α2β1): 3500 nM; Ki ([4]; read-out: apparent vanadate affinity α2β2): 34000 nM; Ki ([5]; read-out: apparent vanadate affinity α2β3): 1900 nM |
| CC(C)OC(=O)CCC/C=C\C[C@@H]1[C@@H](CC[C@@H](O)CCc2ccccc2)[C@H](O)C[C@@H]1O [Latanoprost, reference compound] |  |  |  |  |  |  |  | time after which IOP returned to the control value (basal IOP in rabbits; 1 mM DcB, 0.005% Latanoprost): 12 h; steady-state IOP as % of the unchanged control values (basal IOP in rabbits; after 3-8 hours): 85%; steady-state IOP lower than basal IOP (basal IOP in rabbits; after 3-8 hours, basal IOP 17-18 mmHg, 1 mM DcB, 0.005% Latanoprost): 2.6±0.11 mmHg |
| CC1CN(C(C)(C)C)CCC(O[C@@H]2[C@H](C)O[C@@H](O[C@@H]3[C@H](C)O[C@@H](O[C@H]4CC[C@@]5(C)C(CCC6C5C[C@H](O)[C@]5(C)[C@@H](C7=CC(=O)OC7)CC[C@]65O)C4)C[C@@H]3O)C[C@@H]2O)O1 (stereo partly shown) [DtB] | 135 | 21.6 ± 5.6 | 6.2 | 7.3 | 18.4 ± 1.1 | 8.2 | 16.3 ± 0.28 |  |
